Assays:
[1] = test system: rat; details: intrathecal
Protocol: Intrathecal catheters were surgically implanted in the rats after application of anesthetic (Nembutal, 30 mg/kg, intraperitoneal) 5-7 days prior to the test procedure. The 5-7 day period prior to testing allowed for full recovery from the surgical procedures. […] Each catheter was anchored to the skull with cyanoacrylate adhesive, and the skull was closed with wound clips. The free end of each catheter was heat annealed; when compositions were to be injected via the intrathecal route each composition was introduced therein using a Hamilton needle inserted into the sealed catheter.
Pain sensitivity was assessed using a standard analgesiometric hot plate test (Woolfe and MacDonald (1944) J. Pharmacol. Exp. Ther. 80:300). The hot plate response was determined by placing a rat on a 55° C. copper hot plate enclosed in a plexiglass cylinder.
Because of the technical demands of these experiments, no more than 8-9 rats were tested on a given day. Sufficient animals were studied to obtain 10-11 evaluable rats per test condition. On the study day, animals were tested for baseline hot plate responses, and then received bolus injections of test analgesic or physiological saline (control). Hot plate responses were assessed again at 15 min, 30 min, 1 hr, 3 hr, 6 hr and 24 hr after intrathecal injection of test compound or vehicle control.
Ninety-six (96) rats, ranging in weight from 320 g to 420 g, were used in this study. Catheters were implanted and recovery was allowed for as described hereinabove. […] Drug or saline vehicle doses were administered using Hamilton needles inserted into the catheters, with a dose volumes of 37.5 μL/kg followed by a 10 μL saline catheter wash-out. Baseline (pre-drug) and responses at 15 min, 30 min, 1 hr, 3 hr, 6 hr and 24 hr after drug or vehicle injection were determined.

[2] = test system: rat; assay: Rat hot plate test, 10 single daily intrathecal doses of elcatonin over 11 days (Example 12); type: in vivo; details: 4.4 IU/kg intrathecal, 10 daily doses in two 5 day phases (FIG. 8)
Protocol: Intrathecal catheters were implanted in rats as described hereinabove, and a 7-10 day period thereafter allowed for full recovery from the surgical procedures. Nine rats were assigned to three treatment groups of three rats per group. The study is conducted in two 5 day treatment phases separated by a 48 hour nontreatment interval. Treatment Group I rats receive no treatment (sham injection). In each treatment phase, Group II rats received five consecutive daily intrathecal doses of sterile physiological saline (vehicle control), for a total of 10 injections per study treatment.
For each treatment, hot plate latencies are determined as described in Example 5 hereinabove at 0 minutes (predose, baseline), 1 hour, 3 hours, and 24 hours following injection on the 1st, 3rd, 5th, 7th, 9th and 11th study days (Table 4).

[3] = test system: rat; assay: Rat hot plate test, five consecutive daily intrathecal doses of elcatonin (Example 11); type: in vivo; details: 4.4 IU/kg intrathecal, five consecutive daily doses (FIG. 7)
Protocol: Intrathecal catheters were implanted in rats as described hereinabove, and a 7-10 day period thereafter allowed for full recovery from the surgical procedures.
Eighteen rats were assigned to three treatment groups of six rats per group. The study is conducted in two treatment phases at one week intervals. Treatment Group I rats receive no treatment. Group II rats receive five consecutive daily intrathecal doses of sterile physiological saline (vehicle control).
For each treatment, hot plate latencies are determined as described in Example 5 herein above at 0 minutes (predose, baseline), 1 hour, 3 hours, and 24 hours following injection on the first, third, and fifth study days.

[4] = test system: rat; assay: Rat hot plate test, single intravenous elcatonin (Example 10); type: in vivo
Protocol: A total of 24 rats, ranging in weight from 320 to 420 g, was used in this study. Four to eight rats were used for each dose level. […] The doses used were 10, 30, 100 and 300 IU/kg (1.61, 4.83, 16.1 and 48.3 μg/kg, respectively).

[Des-Cys^1,ASU^7 ]-Calcitonin, Eel [Elcatonin]
dose approximately equivalent to 164.73 nmol/kg morphine sulfate (125.0 μg/kg) ([1]; 30 min post-injection): ~0.18 nmol/kg | dose producing a hot plate latency similar to 98.84 nmol/kg morphine sulfate (75.0 μg/kg) ([1]; 30 min post-injection): ~0.12 nmol/kg | onset of antinociception/analgesia post-injection ([1]; all tested doses): ≤ 15 min | time of peak antinociception ([1]; all tested doses (2.4-6.0 IU/kg)): 30 to 60 min | analgesia compared to intrathecal morphine ([1]; rat hot plate): dramatically improved analgesia | analgesic effect over time [2]: cumulative analgesic effect over time | hot plate latency [2]: hot plate latency is increased | hot plate latency [3]: hot plate latency is increased | hot plate latency at 24 hr after each successive injection [3]: greater hot plate latency, and a cumulative analgesic effect over time | Hot Plate Latency (Mean ± SEM) ([4]; 10.0 IU/kg (1.61 μg/kg) intravenous single, 0 hr (baseline)): 12.03 ± 1.02 s | Hot Plate Latency (Mean ± SEM) ([4]; 10.0 IU/kg (1.61 μg/kg) intravenous single, 0.25 hr): 11.95 ± 1.40 s | Hot Plate Latency (Mean ± SEM) ([4]; 10.0 IU/kg (1.61 μg/kg) intravenous single, 0.5 hr): 15.64 ± 2.39 s | Hot Plate Latency (Mean ± SEM) ([4]; 10.0 IU/kg (1.61 μg/kg) intravenous single, 1 hr): 14.95 ± 2.92 s | Hot Plate Latency (Mean ± SEM) ([4]; 10.0 IU/kg (1.61 μg/kg) intravenous single, 3 hr): 14.11 ± 0.94 s | Hot Plate Latency (Mean ± SEM) ([4]; 10.0 IU/kg (1.61 μg/kg) intravenous single, 6 hr): 10.45 ± 1.03 s | Hot Plate Latency (Mean ± SEM) ([4]; 10.0 IU/kg (1.61 μg/kg) intravenous single, 24 hr): 8.86 ± 1.23 s | Hot Plate Latency (Mean ± SEM) ([4]; 30.0 IU/kg (4.83 μg/kg) intravenous single, 0 hr (baseline)): 10.71 ± 1.02 s | Hot Plate Latency (Mean ± SEM) ([4]; 30.0 IU/kg (4.83 μg/kg) intravenous single, 0.25 hr): 10.04 ± 0.96 s | Hot Plate Latency (Mean ± SEM) ([4]; 30.0 IU/kg (4.83 μg/kg) intravenous single, 0.5 hr): 12.18 ± 1.22 s | Hot Plate Latency (Mean ± SEM) ([4]; 30.0 IU/kg (4.83 μg/kg) intravenous single, 1 hr): 14.14 ± 1.14 s | Hot Plate Latency (Mean ± SEM) ([4]; 30.0 IU/kg (4.83 μg/kg) intravenous single, 3 hr): 14.26 ± 1.39 s | Hot Plate Latency (Mean ± SEM) ([4]; 30.0 IU/kg (4.83 μg/kg) intravenous single, 6 hr): 15.12 ± 2.20 s | Hot Plate Latency (Mean ± SEM) ([4]; 30.0 IU/kg (4.83 μg/kg) intravenous single, 24 hr): 10.76 ± 1.25 s | Hot Plate Latency (Mean ± SEM) ([4]; 100.0 IU/kg (16.1 μg/kg) intravenous single, 0 hr (baseline)): 13.53 ± 1.63 s | Hot Plate Latency (Mean ± SEM) ([4]; 100.0 IU/kg (16.1 μg/kg) intravenous single, 0.25 hr): 11.05 ± 1.99 s | Hot Plate Latency (Mean ± SEM) ([4]; 100.0 IU/kg (16.1 μg/kg) intravenous single, 0.5 hr): 9.63 ± 1.21 s | Hot Plate Latency (Mean ± SEM) ([4]; 100.0 IU/kg (16.1 μg/kg) intravenous single, 1 hr): 11.20 ± 1.95 s | Hot Plate Latency (Mean ± SEM) ([4]; 100.0 IU/kg (16.1 μg/kg) intravenous single, 3 hr): 14.76 ± 1.19 s | Hot Plate Latency (Mean ± SEM) ([4]; 100.0 IU/kg (16.1 μg/kg) intravenous single, 6 hr): 14.00 ± 1.83 s | Hot Plate Latency (Mean ± SEM) ([4]; 100.0 IU/kg (16.1 μg/kg) intravenous single, 24 hr): 14.30 ± 1.33 s | Hot Plate Latency (Mean ± SEM) ([4]; 300.0 IU/kg (48.3 μg/kg) intravenous single, 0 hr (baseline)): 11.22 ± 0.38 s | Hot Plate Latency (Mean ± SEM) ([4]; 300.0 IU/kg (48.3 μg/kg) intravenous single, 0.25 hr): 11.05 ± 3.82 s | Hot Plate Latency (Mean ± SEM) ([4]; 300.0 IU/kg (48.3 μg/kg) intravenous single, 0.5 hr): 11.65 ± 2.31 s | Hot Plate Latency (Mean ± SEM) ([4]; 300.0 IU/kg (48.3 μg/kg) intravenous single, 1 hr): 12.65 ± 2.09 s | Hot Plate Latency (Mean ± SEM) ([4]; 300.0 IU/kg (48.3 μg/kg) intravenous single, 3 hr): 17.37 ± 4.25 s | Hot Plate Latency (Mean ± SEM) ([4]; 300.0 IU/kg (48.3 μg/kg) intravenous single, 6 hr): 11.55 ± 2.80 s | Hot Plate Latency (Mean ± SEM) ([4]; 300.0 IU/kg (48.3 μg/kg) intravenous single, 24 hr): 10.52 s | intravenous dose producing a hot plate latency similar to 1.6 IU/kg (0.25 μg/kg) intrathecal ([4]; at 0.5 hr): 10.0 IU/kg | increase in hot plate latencies ([4]; intravenous, 10-300 IU/kg): only small increases in hot plate latencies | time of peak effects ([4]; intravenous, 10 IU/kg): 30 min | dose response effect ([4]; intravenous, 10 to 300 IU/kg): No significant dose response effect was observed | time of peak effects ([4]; intravenous, 30-300 IU/kg): 180 to 360 min
